CC50 and EC50 data for 27 compounds are collected here from ChEMBL document CHEMBL5608197, “Optimization of pyrazolopyridine 4-carboxamides with potent antimalarial activity for which resistance is associated with the P. falciparum transporter ABCI3” (Eur J Med Chem, 2024).

Data set [1] can be described thus: Cytotoxicity against human HepG2 cells assessed as inhibition of cell growth incubated for 48 hrs by CellTiter-Glo luminescence assay. The format is toxicity, cell-based. Background: ATP-based viability assays read luminescence as a measure of living cells.
The next data set deals with Plasmodium falciparum. In words: Antiplasmodial activity against asexual blood stage of Plasmodium falciparum 3D7 assessed as inhibition of parasite growth incubated for 72 hrs by LDH assay. The settings on record: 3D7, 72 h. The class given is functional, organism-based.

As to `Cc1nn(C(C)(C)C)c2nc(-c3ccccc3)cc(C(=O)N3CCOc4ccccc43)c12`, in data set [1], the CC50 at 48 h was greater than 40000 nM. Moreover, the 50% effective concentration (EC50) with Plasmodium falciparum is 453 nM.

As for `CC1CN(C(=O)c2cc(-c3ccccc3)nc3c2cnn3C(C)C)CCO1` (centres undefined), in data set [1], the CC50 at 48 h was greater than 40000 nM. Moreover, the EC50 in the data set with Plasmodium falciparum amounted to 1000 nM.

For `Cc1nn(C(C)(C)C)c2nc(C3CC3)cc(C(=O)N3CCOc4ncccc43)c12`, the cytotoxic concentration (CC50) at 48 h in data set [1] is greater than 10000 nM. Besides, the EC50 in the data set with Plasmodium falciparum amounted to 2500 nM.

`COc1ccccc1CNC(=O)c1cc(C2CC2)nc2c1cnn2C(C)C`: the CC50 at 48 h in data set [1] is greater than 40000 nM. The EC50 with Plasmodium falciparum was 680 nM.

In the case of `Cc1nn(C(C)(C)C)c2nc(C3CC3)cc(C(=O)N3CCCCC3)c12`, in data set [1], the CC50 at 48 h was greater than 40000 nM. Moreover, the half-maximal effective concentration (EC50) with Plasmodium falciparum turned out to be 635 nM.

With `COc1ccccc1N(C)C(=O)c1cc(C2CC2)nc2c1c(C)nn2C(C)(C)C`, in data set [1], the CC50 at 48 h was greater than 10000 nM. Moreover, the EC50 in the data set on Plasmodium falciparum came to 2360 nM.

On to `CC(C)c1nn(C(C)(C)C)c2nc(C3CC3)cc(C(=O)N3CCOc4ccccc43)c12`, for which, in data set [1], the half-maximal cytotoxic concentration (CC50) at 48 h was greater than 40000 nM. The EC50 with Plasmodium falciparum came to 580 nM.

Consider `Cc1nn(C(C)(C)C)c2nc(C3CC3)cc(C(=O)N3CCN(C)CC3)c12`, for which the CC50 at 48 h in data set [1] is greater than 40000 nM. Also, the EC50 with Plasmodium falciparum is 545 nM.

In the case of `Cc1cc(C)c(NC(=O)c2cc(C3CC3)nc3c2c(C)nn3C(C)(C)C)c(Cl)c1`, the CC50 at 48 h in data set [1] is greater than 40000 nM. For the same compound, in the data set with Plasmodium falciparum, the half-maximal effective concentration (EC50) was 1130 nM.

On to `Cc1nn(C(C)(C)C)c2nc(C3CC3)cc(C(=O)N3CCOCC3)c12`, for which the 50% cytotoxic concentration (CC50) at 48 h in data set [1] is greater than 40000 nM. Further, the EC50 with Plasmodium falciparum is 2330 nM.

On to `Cc1nn(C)c2nc(C3CC3)cc(C(=O)N3CCOc4ccccc43)c12`, for which the concentration giving a half-maximal response (EC50) in the data set with Plasmodium falciparum was greater than 10000 nM.

Consider `COc1cc(C(=O)N2CCOc3ccccc32)c2c(C)nn(C(C)(C)C)c2n1`, for which the 50% cytotoxic concentration (CC50) at 48 h in data set [1] is greater than 40000 nM. In the data set with Plasmodium falciparum, the concentration giving a half-maximal response (EC50) is 1040 nM.

For `CCc1nn(C(C)(C)C)c2nc(C3CC3)cc(C(=O)N3CCOc4ccccc43)c12`, the CC50 at 48 h in data set [1] was greater than 10000 nM. Also, the EC50 in the data set on Plasmodium falciparum turned out to be 288 nM.

With `Cc1nn(C(C)(C)C)c2nc(C3CC3)cc(C(=O)N3CCc4ccccc43)c12`, the CC50 at 48 h in data set [1] was greater than 40000 nM. In the data set on Plasmodium falciparum, the EC50 is 2480 nM.

For `CC(C)(C)n1ncc2c(C(=O)N3CCOc4ccccc43)cc(C3CC3)nc21`, in data set [1], the CC50 at 48 h was greater than 40000 nM. Also, the EC50 in the data set on Plasmodium falciparum was 490 nM.

Take `COc1ccccc1CNC(=O)c1cc(C2CC2)nc2c1c(C)nn2C(C)(C)C`: the CC50 at 48 h in data set [1] was greater than 40000 nM. In addition, the half-maximal effective concentration (EC50) in the data set with Plasmodium falciparum was found to be 463 nM.

Take `CC(C)(C)n1nc(C2CC2)c2c(C(=O)N3CCOc4ccccc43)cc(C3CC3)nc21`: the cytotoxic concentration (CC50) at 48 h in data set [1] is greater than 10000 nM. Moreover, in the data set on Plasmodium falciparum, the 50% effective concentration (EC50) was 79 nM.

On to `Cc1nn(C(C)(C)C)c2nc(C3CC3)cc(C(=O)N3CCOc4cccnc43)c12`, for which the CC50 at 48 h in data set [1] is greater than 10000 nM. Moreover, the concentration giving a half-maximal response (EC50) in the data set with Plasmodium falciparum was determined as 856 nM.

With `CC(C)(C)n1nc(Br)c2c(C(=O)N3CCOc4ccccc43)cc(C3CC3)nc21`, in data set [1], the cytotoxic concentration (CC50) at 48 h was greater than 40000 nM. Besides, the 50% effective concentration (EC50) with Plasmodium falciparum came out at 155 nM.

As to `Cc1nn(C(C)(C)C)c2nc(C3CC3)cc(C(=O)Nc3nnc4ccccn34)c12`, the half-maximal effective concentration (EC50) in the data set with Plasmodium falciparum was greater than 10000 nM.

`COc1ccccc1NC(=O)c1cc(C2CC2)nc2c1c(C)nn2C(C)(C)C`: the CC50 at 48 h in data set [1] is greater than 40000 nM. Further, the concentration giving a half-maximal response (EC50) with Plasmodium falciparum came to 2300 nM.

Regarding `Cc1nn(-c2ccccc2)c2nc(C3CC3)cc(C(=O)N3CCOc4ccccc43)c12`, the cytotoxic concentration (CC50) at 48 h in data set [1] is greater than 40000 nM. In addition, the 50% effective concentration (EC50) in the data set on Plasmodium falciparum stood at 1120 nM.

Regarding `Cc1nn(C(C)(C)C)c2nc(C3CC3)cc(C(=O)N3CCOc4cnccc43)c12`, the concentration giving a half-maximal response (EC50) in the data set with Plasmodium falciparum stood at 2070 nM.

In the case of `Cc1nn(C(C)(C)C)c2nc(C(C)C)cc(C(=O)N3CCOc4ccccc43)c12`, the half-maximal cytotoxic concentration (CC50) at 48 h in data set [1] was greater than 40000 nM. Further, the EC50 in the data set on Plasmodium falciparum came out at 740 nM.

With `CCc1cc(C(=O)N2CCOc3ccccc32)c2c(C)nn(C(C)(C)C)c2n1`, the 50% cytotoxic concentration (CC50) at 48 h in data set [1] was greater than 40000 nM. Further, the EC50 in the data set with Plasmodium falciparum came to 843 nM.

For `Cc1nn(C(C)C)c2nc(C(C)C)cc(C(=O)Nc3nnc4ccccn34)c12`, the EC50 in the data set on Plasmodium falciparum stood at 860 nM.

As to `Cc1n[nH]c2nc(C3CC3)cc(C(=O)N3CCOc4ccccc43)c12`, in the data set with Plasmodium falciparum, the concentration giving a half-maximal response (EC50) is greater than 10000 nM.

What is called CC50 is the concentration that lowers cell viability or growth by half. The term EC50 denotes the concentration that produces a half-maximal response.
